Data published in publication PMC5517430, “2,3,7,8-Tetrachlorodibenzo-p-dioxin (TCDD)-elicited effects on bile acid homeostasis: Alterations in biosynthesis, enterohepatic circulation, and microbial metabolism” (Scientific Reports, 2017).

What was measured:
liver of C57BL/6 mice = test: QuHAnT quantitation of Oil Red O staining (hepatic fat accumulation); type: in vivo, mouse; conditions: 30 µg/kg TCDD every 4 d for 28 d
Procedure: All processing was performed by the MSU Investigative Histopathology Laboratory (https://humanpathology.natsci.msu.edu/). Formalin-fixed hepatic tissues were vacuum infiltrated with paraffin using a Tissue-Tek VIP 2000 tissue processor (Sakura) and embedded with the Thermo Fisher HistoCentre III Embedding Center (Thermo Fisher, Waltham, Massachusetts). Paraffin blocks were sectioned at 4–5 µm with a Reichert Jung 2030 rotary microtome (Reichert, Depew, New York) and dried for 2–24 h at 56 °C to ensure adherence to the slides. For lipid staining, liver sections frozen in O.C.T. compound were sectioned at 6 µm, fixed in 10% NBF for 5 min, rinsed with water, and immersed in 100% propylene glycol for 5 min. Liver sections were stained with hematoxylin and eosin (H&E) for general histological assessment. Lipids were stained using Oil Red O (ORO) as previously described. […]
Quantitation of ORO staining was performed using the Quantitative Histological Analysis Tool (QuHAnT)[66]. […] Using ImageJ (http://rsb.info.nih.gov.ij/), optimal hue, saturation, and value (HSV) image segmentation thresholds for feature extraction were determined to be 0 to 50 and 225 to 255 (hue), 125 to 255 (saturation), and 0 to 255 (value), while optimal total tissue feature extraction thresholds were 0 to 255 (hue), 20 to 255 (saturation), and 0 to 255 (value). […]

[1] = tested on: bsh and baiCD of gut microbiota; test: Degenerate qRT-PCR of bacterial functional genes in fecal pellets; type: in vivo, mouse; conditions: male mice, 30 µg/kg TCDD
Source text: The bsh Hidden Markov Model (HMM) constructed by the Ribosomal Database Project consisted of 12 vetted seed sequences from Lactobacillus, Clostridium, Roseburia, Eubacterium, Butyrivibrio, and Streptococcus species, while the baiCD HMM consisted of 10 vetted seed sequences from Clostridium and Lachnospiraceae species. Using these models, more inclusive sequence sets were created for bsh and baiCD within the ‘FunGene functional gene pipeline & repository’[80] by extracting sequences from GenBank. Setting the HMM consensus percent identity cut-off to ≥40%, nucleotide sequences of bsh and baiCD were obtained from 2633 and 129 bacterial organisms, respectively. Given the diversity of bacterial organisms found to express bsh, the 2633 sequences from FunGene were separated into 4 groups based on nucleotide similarity determined through construction of a phylogenetic tree (Group 1: 423, Group 2: 330, Group 3: 955, Group 4: 925). Bacterial classifications (genus level) of the bsh sequences in each phylogenetic group are depicted in Fig. 8A1. […] The Primer Design terminal program developed by the Ribosomal Database Project (https://github.com/rdpstaff/PrimerDesign) was used to design degenerate primer sets which target conserved regions within baiCD and each phylogenetic group of bsh (Supplementary Table S2). To estimate the overall abundance of bile acid metabolism genes within the gut microbiome, primer sets were selected to target ≥75% of the baiCD sequences and the sequences within each bsh group.
Frozen fecal pellets were crushed into a powder and bacterial DNA was isolated using the QIAamp DNA Stool Mini Kit (Qiagen, Valencia, CA). To investigate bile acid metabolism loci, qRT-PCR was performed on a Bio-Rad CFX Connect Real-Time PCR Detection System as previously described. Gene expression relative to vehicle control was calculated using the 2^−∆∆CT method, with each fecal sample extract normalized to total bacterial DNA levels using universal primers targeting the 16 S ribosomal RNA gene[81]. Gene levels are plotted relative to vehicle control.

[2] = tested on: hepatic taurine and glycine; design: method as in PMID 26582802; conditions: female mice, cited from earlier work
AhR = test: Hepatic AhR ChIP-Seq (AhR genomic enrichment); type: in vivo, mouse
Procedure: Putative dioxin response elements (pDREs) with matrix similarity scores (MSS) ≥ 0.856 were previously identified. ChIP-Seq was previously performed on liver samples from male C57BL/6 mice 2 h after a single bolus oral gavage of 30 µg/kg TCDD[33], [70]. Briefly, cross-linked DNA was immunoprecipitated with either rabbit IgG or anti-AhR (H-211, sc-5579; Santa Cruz, CA). Libraries were prepared using the MicroPlex kit (Diagenode), pooled, and sequenced at a depth of a ~30 M on an Illumina HiSeq 2500 at the MSU RTSF Genomics Core. Reads were mapped to the mouse reference genome (GRCm38 release 81) using Bowtie 2.0.0 and alignments converted to SAM format using SAMTools v0.1.2. Normalization and peak calling was performed using CisGenome[71], by comparing IgG control and AhR enriched samples (n = 5) using a bin size (−b) of 25 and boundary refinement resolution (−bw) of 1 with default parameters.

[3] = normalized to 16S rRNA gene, n = 2
[4] = male mouse liver, 2 h after single oral gavage of 30 µg/kg TCDD

SMILES: Clc1cc2c(cc1Cl)Oc1cc(Cl)c(Cl)cc1O2 [TCDD, 2,3,7,8-tetrachlorodibenzo-p-dioxin]
- Hepatic fat accumulation (ORO), males compared to females (liver of C57BL/6 mice): 6.2 fold
- bsh gene levels within phylogenetic group 4 [1]: unaffected
- bsh gene levels within phylogenetic groups 1, 2, and 3 [1]: increased
- Clostridium baiCD level (validated primers), fold increase [1, 3]: 2.1 fold
- bsh gene level, group 1 primer set 7, fold increase [1, 3]: 21.8 fold
- bsh gene level, group 1 primer set 8, fold increase [1, 3]: 7.3 fold
- bsh gene level, group 2 primer set 2, fold increase [1, 3]: 7.6 fold
- bsh gene level, group 2 primer set 11, fold increase [1, 3]: 7.5 fold
- bsh gene level, group 3 primer set 9, fold increase [1, 3]: 4.2 fold
- Hepatic taurine level, max fold increase ([2]; p = 0.05): 1.4 fold
- Hepatic glycine level, max fold increase ([2]; p = 0.10): 20.3 fold
- Slc6a6 (TAUT) AhR Binding? (AhR; liver): YES
- Slc10a1 (NTCP or LBAT) AhR Binding? (AhR; liver): YES
- Slco2b1 (OATP2B1) AhR Binding? (AhR; liver): YES
- Soat1 AhR Binding? (AhR; liver): YES
- Soat2 AhR Binding? (AhR; liver): YES
- Sqle AhR Binding? (AhR; liver): YES
- Srebf2 AhR Binding? (AhR; liver): YES
- Tm7sf2 AhR Binding? (AhR; liver): YES
- AhR binding within Cyp8b1, fold enrichment (AhR; [4]): 2.2 fold
- AhR genomic binding at Cyp7a1, fold enrichment (AhR; [4]): 2.3 fold
- AhR genomic binding at the Hmgcr loci, fold increase (AhR; [4]): 10.3 fold
